What all share (type): binding
For one assay, the target named is Atg8 (Saccharomyces cerevisiae, UniProt P38182, K26P). The assay can be described thus: biochemical.
In the next assay the target is GABARAPL1 WT (Homo sapiens, UniProt Q9H0R8). The assay can be described thus: ITC of peptides with GABARAPL1. Conditions: 25 °C, ± fitting error. The procedure: (§1) Some of peptides (Supplementary Table 4) and all proteins except Atg40-6His were expressed in E. coli BL21 (DE3). Bacteria were cultured at 37 °C until OD600 became 0.8–1.0 and further cultured at 16 °C with 100 μM IPTG overnight. After centrifugation, the pellets were resuspended with 20 ml PBS with 0.5 mM EDTA and lysed by sonication for 10 min. After centrifugation, the supernatants were incubated with GST-accept resin (Nacalai tesque). After three times wash by PBS, the proteins were eluted with glutathione buffer (10 mM glutathione and 50 mM Tris pH 8.0). The buffer of the eluates was exchanged with PBS by a Bio-Scale Mini BioGel P-6 desalting column (Bio-Rad). After incubation with GST-fused HRV 3 C protease at 4 °C overnight, the samples were subjected to a GST-accept resin column to remove excised GST and the protease. RTN3^245–264-GABARAP was purified by cation-exchange chromatography using CM Sepharose FF column (GE Healthcare) with 500 mM MES pH 6.0 as buffer B and 50 mM MES pH 6.0 and 1 M NaCl as buffer C. The samples were further subjected to size-exclusion chromatography with 20 mM HEPES pH 6.8, 150 mM sodium chloride except for mCherry-Atg8-CC^tetramer (20 mM HEPES pH 6.8, 500 mM sodium chloride) using a Superdex 75 10/300 or Superdex 200 26/60 column. […]
Sequence of GABARAPL1 WT (Q9H0R8 whole entry, the tested form may be a part): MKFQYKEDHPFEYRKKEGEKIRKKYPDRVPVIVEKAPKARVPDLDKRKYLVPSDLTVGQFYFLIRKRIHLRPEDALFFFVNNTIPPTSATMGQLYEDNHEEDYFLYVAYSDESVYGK

The target of the next assay is GABARAPL2 WT (Homo sapiens, UniProt P60520). The assay can be described thus: ITC of peptides with GABARAPL2. Conditions: 25 °C, ± fitting error. The procedure: as §1
Sequence of GABARAPL2 WT (P60520 whole entry): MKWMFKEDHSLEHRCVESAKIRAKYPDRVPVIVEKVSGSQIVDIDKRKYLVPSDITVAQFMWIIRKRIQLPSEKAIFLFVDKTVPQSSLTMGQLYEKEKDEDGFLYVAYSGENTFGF
The target of another assay is LC3A WT (Homo sapiens, UniProt Q9H492). The assay can be described thus: ITC of peptides with LC3A. Particulars: 25 °C, ± fitting error. Here is the method: (§2) Some of peptides (Supplementary Table 4) and all proteins except Atg40-6His were expressed in E. coli BL21 (DE3). Bacteria were cultured at 37 °C until OD600 became 0.8–1.0 and further cultured at 16 °C with 100 μM IPTG overnight. After centrifugation, the pellets were resuspended with 20 ml PBS with 0.5 mM EDTA and lysed by sonication for 10 min. After centrifugation, the supernatants were incubated with GST-accept resin (Nacalai tesque). After three times wash by PBS, the proteins were eluted with glutathione buffer (10 mM glutathione and 50 mM Tris pH 8.0). The buffer of the eluates was exchanged with PBS by a Bio-Scale Mini BioGel P-6 desalting column (Bio-Rad). After incubation with GST-fused HRV 3 C protease at 4 °C overnight, the samples were subjected to a GST-accept resin column to remove excised GST and the protease. RTN3^245–264-GABARAP was purified by cation-exchange chromatography using CM Sepharose FF column (GE Healthcare) with 500 mM MES pH 6.0 as buffer B and 50 mM MES pH 6.0 and 1 M NaCl as buffer C. The samples were further subjected to size-exclusion chromatography with 20 mM HEPES pH 6.8, 150 mM sodium chloride except for mCherry-Atg8-CC^tetramer (20 mM HEPES pH 6.8, 500 mM sodium chloride) using a Superdex 75 10/300 or Superdex 200 26/60 column. As described in Supplementary Table 4, the Atg40^237–252 M245A and Atg40^237–252 D243A D247A peptides were synthesized by Cosmo Bio, and the FAM134B^453–460 and SEC62^361–368 peptides were synthesized by BEX Co., Ltd. The Atg40^234–252 peptide and its variants were prepared using Liberty Blue peptide synthesizer (CEM Corporation). After dissolving these synthesized peptides in 300 μl water with ~10 μl ammonium hydroxide, they were subjected to size-exclusion chromatography with 20 mM HEPES pH 6.8 containing 150 mM sodium chloride using a Superdex 75 10/300 column.
Peptides used in ITC are listed in Supplementary Table 4. ITC experiments were performed using Microcal iTC200 calorimeter (Malvern Panalytical), with stirring at 1000 rpm at 25 °C. […]

A further assay addresses LC3B WT (Rattus norvegicus, UniProt Q62625). Kind of assay: ITC of peptides with LC3B. Particulars: 25 °C, ± fitting error. From the text: All plasmids for expression of recombinant proteins and peptides in bacteria were based on a pGEX6P-1 vector (GE Healthcare). Construction of pGEX6P-ScAtg8 (1-116) K26P and pGEX6P-rat LC3B (1-120) was previously described[35],[47]. All mutations were generated by PCR-based mutagenesis. The genes were amplified by PCR and inserted downstream of the HRV 3C protease recognition site by NEBuilder HiFi DNA Assembly Master Mix (New England Biolabs) except for that encoding human GABARAP (1-116), which was inserted using restriction enzymes for the NdeI and BamHI sites. Plasmids for expression of fusion proteins for crystallization were constructed by inserting the genes encoding Atg40^237–252, human FAM134B^450–468, human SEC62^361–376 with the T367D mutation, and human RTN3^245–264 isoform e into upstream of the sequence encoding Atg8 K26P of pGEX6P-Atg8 (the K26P mutation was introduced for stabilizing Atg8) or upstream of the sequence encoding GABARAP of pGEX6P-GABARAP (with the F3S V4T mutations for enhancing crystallization). For phase-separation experiments, the mCherry and BNDL1[25],[26] sequences were inserted into upstream and downstream of the ATG8 gene in pGEX6P-Atg8 K26P, respectively. pGEX-SNAP-40C was constructed by the removal of the HRV 3C protease recognition site and the insertion of the SNAP sequence from pSNAP-tag(T7) vector (New England Biolabs) with a linker (Gly–Gly–Gly–Ser–Gly–Gly–Gly) and Atg40^194–256 following a linker (Ser–Ala–Ser–Ser) to upstream and downstream of GST in pGEX6P-1 vector, respectively. In the construction of plasmids for peptide production, a Tyr residue was attached to their C termini for enabling the quantification by absorbance at 280 nm (Supplementary Table 4).
Some of peptides (Supplementary Table 4) and all proteins except Atg40-6His were expressed in E. coli BL21 (DE3). Bacteria were cultured at 37 °C until OD600 became 0.8–1.0 and further cultured at 16 °C with 100 μM IPTG overnight. After centrifugation, the pellets were resuspended with 20 ml PBS with 0.5 mM EDTA and lysed by sonication for 10 min. […]

In a further assay the target is LC3C WT (Homo sapiens, UniProt Q9BXW4). The assay can be described thus: ITC of peptides with LC3C. Conditions: 25 °C, ± fitting error. Here is the method: as §2
Sequence of LC3C WT (Q9BXW4 whole entry): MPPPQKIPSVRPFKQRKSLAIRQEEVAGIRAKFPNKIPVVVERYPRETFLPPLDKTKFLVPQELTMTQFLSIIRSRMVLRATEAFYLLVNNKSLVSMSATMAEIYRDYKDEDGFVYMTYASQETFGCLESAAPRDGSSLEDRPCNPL
Peptides used in ITC are listed in Supplementary Table 4. ITC experiments were performed using Microcal iTC200 calorimeter (Malvern Panalytical), with stirring at 1000 rpm at 25 °C. Atg40, FAM134B, SEC62, and RTN3 peptides were prepared as injection samples from the syringe. Concentrations of FAM134B, SEC62, and RTN3 peptides were 0.5 mM, whereas those of Atg40^234–252 and Atg40^237–252 peptides were 2.0 and 1.8 mM, respectively. In total, 200 μl Atg8, LC3A, LC3B, LC3C, GABARAP, GABARAPL1, and GABARAPL2 with 10 times lower concentration than the syringe samples were filled in the cell. As an exception, 1.8 mM Atg8 was filled in the cell when 1.8 mM Atg40^237–252 D243A D247A was in a syringe. The titration involved 18 injections of 2 μl of the syringe sample at intervals of 120 s into a cell after one injection of 0.4 μl of syringe sample. […]

Where a SMILES comes first, the peptide text is derived from it.

Sequence of Atg8 (P38182 1-116 K26P): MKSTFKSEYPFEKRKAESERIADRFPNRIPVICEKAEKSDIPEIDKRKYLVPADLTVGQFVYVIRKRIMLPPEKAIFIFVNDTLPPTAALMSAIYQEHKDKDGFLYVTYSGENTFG
Protocol for Atg8: ITC experiments were performed using Microcal iTC200 calorimeter (Malvern Panalytical), with stirring at 1000 rpm at 25 °C. Atg40, FAM134B, SEC62, and RTN3 peptides were prepared as injection samples from the syringe. […] In total, 200 μl Atg8, LC3A, LC3B, LC3C, GABARAP, GABARAPL1, and GABARAPL2 with 10 times lower concentration than the syringe samples were filled in the cell. […] The titration involved 18 injections of 2 μl of the syringe sample at intervals of 120 s into a cell after one injection of 0.4 μl of syringe sample. Data sets obtained from the titration of the same syringe sample to the cell filled with buffer were used as reference data for subtraction of heat of dilution. MicroCal Origin 7.0 software was used for data analysis. Thermal measurement of the first injection of the syringe samples was removed from the analysis.

The molecule `CC[C@H](C)[C@H](NC(=O)[C@H](CC(=O)O)NC(=O)[C@H](CCC(=O)O)NC(=O)[C@H](CCSC)NC(=O)[C@H](Cc1ccccc1)NC(=O)[C@H](CC(=O)O)NC(=O)[C@H](Cc1ccc(O)cc1)NC(=O)[C@H](CC(=O)O)NC(=O)[C@H](CC(N)=O)NC(=O)[C@@H]1CCCN1C(=O)[C@H](Cc1ccccc1)NC(=O)[C@H](CCC(=O)O)NC(=O)[C@@H]1CCCN1C(=O)CN)C(=O)N[C@@H](CC(C)C)C(=O)N[C@@H](CC(=O)O)C(=O)N[C@@H](CCC(=O)O)C(=O)N[C@H](C(=O)O)[C@@H](C)O` [Atg40^237-252 WT] (H-GPEFPNDYDFMEDILDET-OH) showed a Kd at Atg8 of 570 ± 510 nM. Besides, at Atg8 (ITC, 25 °C, peptide in syringe 2.0 or 1.8 mM, Atg8 in cell 10 times lower, single-site model, ± fitting error), the “N (site), stoichiometry of binding” value is reported as 0.90 ± 0.03.
Regarding `CC[C@H](C)[C@H](NC(=O)[C@H](CCC(N)=O)NC(=O)[C@H](CC(=O)O)NC(=O)[C@H](CC(C)C)NC(=O)[C@H](CCC(=O)O)NC(=O)[C@H](CO)NC(=O)[C@H](CCC(N)=O)NC(=O)[C@H](CC(=O)O)NC(=O)[C@H](CC(C)C)NC(=O)[C@H](CC(C)C)NC(=O)[C@H](CCC(=O)O)NC(=O)[C@H](Cc1ccccc1)NC(=O)[C@H](CC(=O)O)NC(=O)[C@H](CC(=O)O)NC(=O)CNC(=O)[C@H](CCC(=O)O)NC(=O)[C@H](CCC(=O)O)NC(=O)[C@@H](NC(=O)[C@H](CC(=O)O)NC(=O)[C@@H](NC(=O)[C@H](CC(=O)O)NC(=O)[C@H](CCC(=O)O)NC(=O)[C@H](CCC(=O)O)NC(=O)[C@@H]1CCCN1C(=O)CN)[C@@H](C)O)[C@@H](C)O)C(=O)N[C@@H](CCC(=O)O)C(=O)N[C@@H](CO)C(=O)N[C@@H](CCC(=O)O)C(=O)N[C@@H](CC(C)C)C(=O)N[C@@H](Cc1ccc(O)cc1)C(=O)O` [FAM134B^444-470 WT], the Kd on GABARAPL1 WT (0.5 mM peptide in syringe, GABARAPL1 WT in cell 10 times lower, single-site model) is 120 ± 40 nM; on GABARAPL2 WT (0.5 mM peptide in syringe, GABARAPL2 WT in cell 10 times lower, single-site model), 300 ± 100 nM; at LC3A WT (0.5 mM peptide in syringe, LC3A WT in cell 10 times lower, single-site model) it was 210 ± 30 nM; at LC3B WT (0.5 mM peptide in syringe, LC3B WT in cell 10 times lower, single-site model), 620 ± 160 nM; on LC3C WT (0.5 mM peptide in syringe, LC3C WT in cell 10 times lower, single-site model, read-out: Kd), 1110 ± 350 nM.
With `CC[C@H](C)[C@H](NC(=O)[C@H](CCSC)NC(=O)[C@H](CCC(=O)O)NC(=O)[C@H](Cc1ccccc1)NC(=O)[C@H](CC(=O)O)NC(=O)[C@H](CC(N)=O)NC(=O)CNC(=O)[C@H](CC(N)=O)NC(=O)CNC(=O)[C@H](CO)NC(=O)[C@H](CO)NC(=O)[C@H](Cc1c[nH]cn1)NC(=O)[C@@H]1CCCN1C(=O)CN)C(=O)N[C@H](C(=O)N[C@@H](CCCCN)C(=O)N[C@@H](CCC(=O)O)C(=O)N[C@@H](CCC(=O)O)C(=O)N[C@@H](CC(C)C)C(=O)N[C@@H](CCC(=O)O)C(=O)N[C@@H](CCC(N)=O)C(=O)N[C@@H](CCC(N)=O)C(=O)N[C@H](C(=O)N[C@@H](CC(=O)O)C(=O)N[C@@H](Cc1ccc(O)cc1)C(=O)O)[C@@H](C)O)[C@@H](C)O` [SEC62^355-376 WT] (H-GPHSSGNGNDFEMITKEELEQQTDY-OH), the “N (site), stoichiometry of binding” value on GABARAPL1 WT (GABARAPL1 WT in cell) was found to be 0.83 ± 0.01; at GABARAPL2 WT (GABARAPL2 WT in cell, N fixed to 1.0 when fitting not convergent) it was 0.78 ± 0.01; on LC3A WT (LC3A WT in cell), 0.78 ± 0.01; on LC3B WT (LC3B WT in cell, N fixed to 1.0 when fitting not convergent), 0.74 ± 0.01; at LC3C WT (LC3C WT in cell, N fixed to 1.0 when fitting not convergent), 0.46 ± 0.02.

(Values after paper PMC7335187, “Super-assembly of ER-phagy receptor Atg40 induces local ER remodeling at contacts with forming autophagosomal membranes” (Nature Communications, 2020).)
